{
  "source": "patent US8790678B2",
  "about": "“Biomaterials having nanoscale layers and coatings” (Washington University, priority 2006, dated 2014)",
  "key": {"[1]": {"tested_on": "chorioallantoic membrane (CAM)", "experiment": "Chick chorioallantoic membrane (CAM) angiogenesis assay", "format": "in vivo, chicken", "details": "50 ng spotted on Thermanox coverslip, two days", "description": "Embryonated chicken eggs were incubated blunt-end up in a 37° C. incubator. At embryonal day 6, the top of the egg was cracked and removed using tweezers to create a 1.5 cm diameter opening. The inner shell membrane was removed, exposing the CAM. A 20 μL PEG hydrogel was then placed onto the CAM. As controls, 50 ng bFGF or 50 ng S1P were spotted onto small pieces of Thermanox coverslips (Nunc), air dried and placed onto the CAM. The eggs were sealed with parafilm and returned to the incubator. After two days of incubation, the eggs were reopened and the degree of angiogenesis was visually assessed."}, "HUVEC [2]": {"tested_on": "HUVEC", "experiment": "Time-lapse microscopy of endothelial cell migration on PEG-OVS/albumin/RGD hydrogels", "format": "cell-based, human", "description": "Time-lapse microscopy was used to quantify endothelial cell migration speeds on PEGOVS/albumin hydrogels containing RGD peptide and preloaded with S1P. RGD peptide was added to the PEG hydrogels to promote endothelial cell adhesion and spreading on the materials. PEG-OVS (3.4 mg in 20 μL) was reacted for 30 min with acetyl-GCGYGRGDSPG-NH2 peptide [SEQ ID NO. 5], to attach the peptide to 1/20 of the vinyl sulfone groups (2.78 mM RGD peptide in the final hydrogel). The PEG hydrogels were crosslinked by reacting PEG-OVS with albumin (5.2 mg in 30 μL) premixed with S1P (5 nmol) to give a final concentration of 100 μM S1P within the crosslinked hydrogel. The resulting solution (50 μL) was pipetted into a 24-well plate and incubated at 37° C. for 24 h to allow crosslinking. HUVEC from passage 5-7 were seeded onto the gels at a concentration of 1000 cells/cm^2. After allowing the cells to spread for 6 h in complete growth medium, HEPES-buffered low serum medium (MCDB 131 with 0.1% FBS, 1% ABAM, […] HEPES, pH 7.4) containing 0.4% FAF-BSA was added to the cells. The cells were tracked using time-lapse microscopy for 12 h, recording images every two minutes. Individual cell migration speeds were analyzed manually using ImageJ to trace the path of each cell over time. […]"}, "[3]": {"tested_on": "Human aortic endothelial cells", "experiment": "Single cell tracking on RGD/PEG-OVS/albumin hydrogels under fluid shear stress", "format": "cell-based", "details": "for endothelial cell migration speed: 100 nM S1P", "description": "Human aortic endothelial cells seeded onto RGD/PEG-OVS/albumin hydrogels at 1000-2000 cells/cm^2 were tracked under 20 dynes/cm^2 fluid shear stress in HEPES-buffered low serum medium (HEPES-LSM; MCDB 131 with 0.1% FBS, 1% ABAM, […] HEPES, pH 7.4) containing 0.4% FAF-BSA for 12 h.\nTime lapse microscopy images were obtained every 2 min for 12 h of endothelial cell migration on the surface of RGD containing PEG hydrogels. The percent of cells remaining on the gels during the course of the experiment was recorded for each RGD concentration. The projected cell areas of all cells were determined by manually outlining the cells after 3 h under 20 dyne/cm^2 shear stress. Single endothelial cells were manually tracked for 12 h to obtain XY-coordinate data for the center of each cell. Coordinate data from every six minutes (Δt=6 min) for all cells in each experiment were saved as variables for analysis in MATLAB (The MathWorks, Natick, Mass.). At each time point i, ti=iΔt, the mean squared displacement was calculated using the overlapping interval method. The speed of each individual was calculated by dividing the root mean-square displacement for a single time interval by the tracking interval (6 min). Each cell's persistence time was determined by fitting the persistent random walk model given by Equation 1: <d^2(t)>=2S^2P[t−P(1−e^−t/P)] [1] using the calculated speed by nonlinear least squares regression analysis as previously described (Dunn 1983; Othmer, Dunbar and Alt 1988; Harms et al. 2005). Speed simply represents the total path length of a cell over time. Persistence time represents the time period between changes in the direction of movement of more than 60°. Path length is calculated as the product of speed and persistence time. Cell dispersion is the product of speed squared and persistence time. Cell areas were obtained by manually tracing cells. All data was analyzed by ANOVA Scheffe post hoc. Endothelial Response to Linear RGD Concentration—Cell Attachment Strength"}, "HUVEC [4]": {"tested_on": "HUVEC", "experiment": "Scrape wound migration assay in platelet poor plasma or low serum medium", "format": "cell-based, human", "details": "for number of cells in the scrape wound versus plasma alone: no flow", "description": "The plasma was passed through a 0.22 μm PVDF syringe filter. Plasma was aliquoted and stored at −20° C. VEGF concentration was measured with a sandwich ELISA kit (Quantikine Human VEGF kit, R&D Systems, Minneapolis, Minn.). The concentration of VEGF was measured in plasma samples from three different donors.\nAfter rinsing with D-PBS, LSM or plasma containing the appropriate stimulants were added to the cells. […] Cells were manually counted using ImagePro Express software (Media Cybernetics, Silver Spring, Md.).\nA 2.54 cm diameter Teflon disk was mounted onto the spindle of each motor so that the bottom of the disk was 0.5 cm above the cell monolayer. A total volume of 6 mL of medium was added per well. The motors were driven using a 1.5 V power source resulting in a rotation rate of 150±5 rad/s. […] Cell densities were counted at four locations, each between 0.8 and 1.2 cm away from the center of the well."}, "HAEC": {"tested_on": "HAEC", "experiment": "Individual cell migration of HAEC in plasma", "format": "cell-based, human", "description": "Individual Cell Migration of HAEC—Passage 6 HAEC were subcultured and incubated in growth medium for 3 days and then were serum-starved for 12 h. HAEC cell densities were less than 100 cell/mm^2 so that cell-cell contacts were unlikely during the duration of the experiment. Any cell that contacted another cell was excluded from data analysis. Plasma was buffered with 20 mM HEPES, pH 7.4, and added to the well. Time-lapse microscopy was used to track the cells every 4 min for 12 h with a 10× objective. The migration speed of individual cells was analyzed using ImageJ software (NIH)."}, "S1P1": {"target": "S1P1 (Homo sapiens, UniProt P21453)", "sequence (P21453 whole entry, species assumed)": "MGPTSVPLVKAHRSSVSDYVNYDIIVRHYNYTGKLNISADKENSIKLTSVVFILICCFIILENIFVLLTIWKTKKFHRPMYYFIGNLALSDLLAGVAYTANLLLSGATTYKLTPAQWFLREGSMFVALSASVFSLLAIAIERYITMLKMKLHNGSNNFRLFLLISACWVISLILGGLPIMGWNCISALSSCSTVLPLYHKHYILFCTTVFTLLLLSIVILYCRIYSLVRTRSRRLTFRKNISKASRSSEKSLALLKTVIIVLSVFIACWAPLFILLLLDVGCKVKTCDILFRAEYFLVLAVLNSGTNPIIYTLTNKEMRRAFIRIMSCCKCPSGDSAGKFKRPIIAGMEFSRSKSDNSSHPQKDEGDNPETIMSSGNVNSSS", "details": "Lee et al., Science (1998); read-out: KD for S1P/S1P1 binding; cited from earlier work"}, "plasma lipoproteins": {"tested_on": "plasma lipoproteins", "details": "in blood; cited from earlier work"}, "S1P1 mRNA": {"tested_on": "S1P1 mRNA", "experiment": "Quantitative real time RT-PCR of S1P1 mRNA", "format": "cell-based, human", "details": "10 ng/mL VEGF; HUVEC cultured in plasma; 24 h", "excerpt": "Quantitative Real Time Reverse Transcription PCR-In experiments with fluid flow, cell lysates were harvested only in the region of relevant shear stress (0.8-1.2 cm from the center of the well). For conditions without fluid flow, cell lysates were collected from the entire well. Total cell RNA was isolated using an RNeasy kit (Qiagen). Amplification of an 81-bp fragment of S1P1 using primers (5'-[…] NO:7] and 5'-[…] Inc, Coralville, Iowa) and probe (S1P1 Probe: [NT] ID NO:9], IDT Inc) was performed using the Quantitect qRT-PCR kit (Qiagen). The amount of S1P1 or β-Actin RNA was quantified by comparing data to a standard curve generated using the Taqman human endogenous β-actin control kit (Applied Biosystems). The β-actin control kit contains 333 copies of β-actin DNA per ng of total RNA. Knockdown of S1P1 with siRNA-Passage 3 HUVEC at 30-50% confluence were transfected with 100 nM siRNA targeting S1P1 (Silencer validated siRNA against S1P1, Ambion, Austin, Tex.) in antibiotic-free growth medium using Lipofectamine-2000 (Invitrogen). […] At 48 h, cells were incubated with LSM for 12 h. A negative control (Ambion, Silencer Negative Control #2) was used to test for non-specific effects on gene expression or cell survival. Quantitative real-time RT-PCR was used to determine the extent of S1P1 receptor mRNA knockdown 48 h after transfection."}, "[5]": {"details": "S1P at 0.69 mM cyclic RGD vs 0.52 and 1.38 mM cyclic RGD without S1P"}, "[6]": {"details": "addition of 100 nM S1P, linear RGD"}, "[7]": {"details": "S1P 100 nM or VEGF 10 ng/mL added to plasma"}},
  "note": "“And” between values parts separate entries of the source, which are not always exact repeats. Equal entries are not always repeated.",
  "data": [
    {"compound": "CCCCCCCCCCCCC/C=C/[C@@H](O)[C@@H](N)COP(=O)(O)O", "note": "[S1P, Sphingosine 1-phosphate]", "values": [
      {"measurement": "angiogenic response", "setting": "[1]", "value": "strong angiogenic responses"},
      {"measurement": "mean migration speed of HUVEC", "setting": "HUVEC [2]; S1P delivered from preloaded PEG/albumin/RGD hydrogel (100 μM S1P in gel), without S1P 19.2±10.1", "value": "43.8±15.7", "unit": "μm/h"},
      {"measurement": "mean migration speed of HUVEC", "setting": "HUVEC [2]; culture medium containing 100 nM S1P, on PEG/albumin/RGD hydrogel", "value": "30.2±11.8", "unit": "μm/h"},
      {"measurement": "persistence time", "setting": "[3]; 100 nM S1P compared to no S1P, cyclic RGD", "value": "not significantly changed"},
      {"measurement": "endothelial cell migration speed", "setting": "[3]; cyclic RGD hydrogels, particularly higher concentrations", "value": "significant increase in endothelial cell migration speed"},
      {"measurement": "endothelial cell migration speed", "setting": "[3]; highest linear RGD concentrations", "value": "more than doubled"},
      {"measurement": "projected cell area", "setting": "[3]; S1P addition, cyclic RGD, after 3 h of shear stress", "value": "No clear effect"},
      {"measurement": "cell dispersion", "setting": "[3]; [5]", "value": "statistically greater"},
      {"measurement": "path length", "setting": "[3]; [5]", "value": "statistically greater"},
      {"measurement": "cell dispersion", "setting": "[3]; [6]", "value": "not significant"},
      {"measurement": "path length", "setting": "[3]; [6]", "value": "not significant"},
      {"measurement": "persistence time", "setting": "[3]; [6]", "value": "not clearly affected"},
      {"measurement": "cell densities outside the scrape wound area between S1P levels", "setting": "HUVEC [4]; 0, 200, 500, and 1000 nM exogenous S1P at each time point", "value": "no significant differences"},
      {"measurement": "number of endothelial cells in a scrape wound versus LSM alone", "setting": "HUVEC [4]; 100 nM S1P in LSM, 24 h", "value": "increased the number of endothelial cells"},
      {"measurement": "number of cells in the scrape wound", "setting": "HUVEC [4]; 100 nM S1P in plasma, fluid flow", "value": "did not significantly increase"},
      {"measurement": "number of cells in the scrape wound versus plasma alone", "setting": "HUVEC [4]; 200 nM and 500 nM exogenous S1P, plasma, 24 h", "value": "statistically different from plasma alone"},
      {"measurement": "migration into the wound area versus plasma alone", "setting": "HUVEC [4]; 200 nM exogenous S1P, fluid flow, 48 h", "value": "significantly different from plasma alone"},
      {"measurement": "number of cells in the scrape wound versus plasma alone", "setting": "HUVEC [4]; 200 nM exogenous S1P, plasma, 48 h", "value": "significantly higher than plasma alone"},
      {"measurement": "cell density outside the scrape wound at 48 h versus 0 and 24 h", "setting": "HUVEC [4]; 1000 nM exogenous S1P in static culture", "value": "significantly lower cell density"},
      {"measurement": "number of cells in the wound area versus plasma alone", "setting": "HUVEC [4]; 200, 500, or 1000 nM S1P in plasma, fluid flow, 24 h", "value": "significant increases"},
      {"measurement": "number of cells in the scrape wound versus plasma alone", "setting": "HUVEC [4]; [7]", "value": "no differences"},
      {"measurement": "exogenous S1P concentration with the highest number of cells within the scrape wound", "setting": "HUVEC [4]; plasma, without fluid flow, 100, 200, 500, 1000 nM tested", "value": 200, "unit": "nM"},
      {"measurement": "mean cell speed versus plasma alone", "setting": "HAEC; 100 nM S1P added to static plasma", "value": "no difference"},
      {"measurement": "mean cell speed versus plasma alone", "setting": "HAEC; 500 and 1000 nM exogenous S1P", "value": "did not lead to a significant increase"},
      {"measurement": "mean cell speed versus plasma alone", "setting": "HAEC; S1P in plasma increased by 200 nM, p=0.023", "value": "significantly increased"},
      {"measurement": "Kd", "setting": "S1P1", "value": "~8 nM and 8 nM"},
      {"measurement": "circulating S1P bound by HDL", "setting": "plasma lipoproteins", "value": "about 55%"},
      {"measurement": "circulating S1P bound by other lipoproteins", "setting": "plasma lipoproteins", "value": "about 10%"}
    ]},
    {"compound": "VEGF", "values": [
      {"measurement": "number of cells in the scrape wound versus plasma alone", "setting": "HUVEC [4]; [7]", "value": "no differences"},
      {"measurement": "S1P1 mRNA concentration versus plasma alone", "setting": "S1P1 mRNA", "value": "statistically significant increase"}
    ]}
  ]
}
